# Test results reported in PMC7983170 (Biochemical pharmacology, 2018).
# Target: T1, ABCG2 (Homo sapiens, UniProt Q9UNQ0)
# T1 sequence (Q9UNQ0 1-655): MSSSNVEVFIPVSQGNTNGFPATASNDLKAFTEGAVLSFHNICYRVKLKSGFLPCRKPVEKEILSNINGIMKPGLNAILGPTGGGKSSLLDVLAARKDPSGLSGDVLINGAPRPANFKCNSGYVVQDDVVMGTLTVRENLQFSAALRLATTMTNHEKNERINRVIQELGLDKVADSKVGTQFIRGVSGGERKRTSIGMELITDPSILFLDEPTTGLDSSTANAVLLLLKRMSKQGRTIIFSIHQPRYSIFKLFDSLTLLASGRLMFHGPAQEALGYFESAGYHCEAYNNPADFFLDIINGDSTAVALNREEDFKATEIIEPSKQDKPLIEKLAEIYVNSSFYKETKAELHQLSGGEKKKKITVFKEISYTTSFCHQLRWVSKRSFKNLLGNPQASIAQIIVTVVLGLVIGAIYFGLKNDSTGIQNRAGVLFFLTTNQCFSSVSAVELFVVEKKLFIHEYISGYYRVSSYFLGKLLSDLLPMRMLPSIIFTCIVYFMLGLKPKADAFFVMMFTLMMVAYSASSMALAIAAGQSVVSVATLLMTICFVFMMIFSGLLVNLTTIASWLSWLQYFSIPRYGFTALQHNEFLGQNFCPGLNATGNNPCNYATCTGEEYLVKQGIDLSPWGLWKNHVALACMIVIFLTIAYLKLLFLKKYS
# Assay: stimulation of vanadate-sensitive ATPase activity in membrane vesicles
# Assay type: biochemical
smiles,measurement,value
O=C(CCCCCCNC(=O)c1cnc(N(c2ccccc2)c2ccccc2)nc1)NO [ricolinostat],EC50,~14.7 µM
